Measured values from patent US4117230A, “Hydantoin derivatives as therapeutic agents” (priority 1977, dated 1978).

How the values were obtained:
aldose reductase = target: T1, aldose reductase (Bos taurus, UniProt P16116); test: inhibition of aldose reductase enzyme activity (procedure of S. Hayman et al., modified by K. Sestanj et al.); assay type: biochemical, calf; conditions: for inhibition at 100 µM: 10^-4 M; for inhibition at 100 µM / inhibition at 10 µM / inhibition at 1 µM / inhibition at 0.1 µM: calf lens enzyme, read-out: Percent inhibition of aldose reductase enzyme activity; for inhibition at 10 µM: 10^-5 M; for inhibition at 1 µM: 10^-6 M; for inhibition at 0.1 µM: 10^-7 M; for aldose reductase inhibitory activity (in words): qualitative statement
T1 construct: partially purified aldose reductose enzyme obtained from calf lens; from tissue; host or cells: calf lens
Procedure: (§1) The activity of the compounds of the present invention, as agents for the control of chronic diabetic complications, is determined by their ability to successfully pass one or more of the following standard biological and/or pharmacological tests, viz., (1) measuring their ability to inhibit the enzyme activity of isolated aldose reductase; (2) measuring their ability to reduce or inhibit sorbitol accumulation in the sciatic nerve of acutely sterptozotocinized (i.e., diabetic) rats; (3) measuring their ability to reverse already-elevated sorbitol levels in the sciatic nerve and lens of chronic streptozotocin-induced diabetic rats; (4) measuring their ability to prevent or inhibit galactitol formation in the lens of acutely galactosemic rats, and (5) measuring their ability to delay cataract formation and reduce the severity of lens opacities in chronic galactosemic rats.
Hayman et al., as described in the Journal of Biological Chemistry, Vol. 240, p. […] In every case, the substrate employed ws partially purified aldose reductose enzyme obtained from calf lens.

[1] = test system: sorbitol accumulation in the sciatic nerve of streptozotocinized (i.e., diabetic) rats; test: inhibition of sorbitol accumulation in the sciatic nerve of acutely streptozotocinized (diabetic) rats; assay type: in vivo, rat; conditions: measured at 27 h, vs untreated
Procedure: as §1
The following spiro-hydantoin compounds of Preparation C and Examples I-V, VII-IX, XI-XVII, XIX-XXV, XXVII and XXX-XXXIII, respectively, were tested for their ability to reduce or inhibit sorbitol accumulation in the sciatic nerve of streptozotocinized (i.e., diabetic) rats by the procedure essentially described in U.S. Pat. No. 3,821,383. In the present study, the amount of sorbitol accumulation in the sciatic nerves was measured 27 hours after induction of diabetes. The compounds were administered orally at the dose levels indicated at 4, 8 nd 24 hours following the administration of streptozotocin. The results obtained in this manner are presented below in terms of percent inhibition (%) afforded by the test compound as compared to the case where no compound was administered (i.e., the untreated animal where sorbitol levels normally rise from approximately […]. tissue to as high as […]. tissue in the 27-hour test period): […]

[2] = test system: sorbitol levels in the sciatic nerve and lens of diabetic subjects; test: lowering of sorbitol levels in sciatic nerve (peripheral nerves) and lens of diabetic subjects (summary statement); assay type: in vivo; conditions: qualitative statement
[3] = test system: galactitol levels in the lens of galactosemic subjects; test: lowering of galactitol levels in the lens of galactosemic subjects (summary statement); assay type: in vivo; conditions: qualitative statement
[4] = 1.5 mg./kg. orally at 4, 8 and 24 h after streptozotocin
[5] = 5.0 mg./kg. orally at 4, 8 and 24 h after streptozotocin
[6] = 10 mg./kg. orally at 4, 8 and 24 h after streptozotocin
[7] = 0.75 mg./kg. orally at 4, 8 and 24 h after streptozotocin

| SMILES | inhibition at 100 µM (aldose reductase) | inhibition at 10 µM (aldose reductase) | inhibition at 1 µM (aldose reductase) | inhibition at 0.1 µM (aldose reductase) | aldose reductase inhibitory activity (in words) (aldose reductase) | Percent inhibition of sorbitol accumulation in the sciatic nerve [1, 4] | Percent inhibition of sorbitol accumulation in the sciatic nerve [1, 5] | Percent inhibition of sorbitol accumulation in the sciatic nerve [1, 6] | lowering of sorbitol levels in sciatic nerve (peripheral nerves) and lens (in words) [2] | lowering of galactitol levels in the lens (in words) [3] | Percent inhibition of sorbitol accumulation in the sciatic nerve [1, 7] | Percent inhibition of sorbitol accumulation in the sciatic nerve ([1]; 2.5 mg./kg. orally at 4, 8 and 24 h after streptozotocin) |
| --- | --- | --- | --- | --- | --- | --- | --- | --- | --- | --- | --- | --- |
| O=C1NC(=O)C2(CCc3ccccc32)N1 (stereo not shown) [Ex. I, spiro-[imidazolidine-4,1'-indan]-2,5-dione] | 73% | 39% | 18% | -11% | highly potent | 29% | 52% | 67% | extremely effective | extremely effective |  |  |
| O=C1NC(=O)C2(CCSc3cc(Cl)c(Cl)cc32)N1 (stereo not shown) [Ex. XI, 6',7'-dichloro-spiro-[imidazolidine-4,4'-thiochroman]-2,5-dione] | 67% | 84% | 76% | 69% | highly potent |  | 59% |  | extremely effective | extremely effective |  |  |
| O=C1NC(=O)C2(CCOc3cc(Cl)c(Cl)cc32)N1 (stereo not shown) [Ex. XXIII, 6,7-dichloro-spiro-[chroman-4,4'-imidazolidine]-2',5'-dione] | 59% | 96% | 91% | 84% | highly potent | 64% |  |  | extremely effective | extremely effective |  |  |
| O=C1NC(=O)C2(CCOc3c(Cl)cc(Cl)cc32)N1 (stereo not shown) [Ex. XXIV, 6,8-dichloro-spiro-[chroman-4,4'-imidazolidine]-2',5'-dione] | 85% | 90% | 78% | 81% | highly potent |  |  |  | extremely effective | extremely effective | 82% |  |
| O=C1NC(=O)C2(CCOc3ccc(Cl)cc32)N1 (stereo not shown) [Ex. XXV, 6-chloro-spiro-[chroman-4,4'-imidazolidine]-2',5'-dione] | 73% | 81% | 77% | 64% | highly potent | 84% |  |  | extremely effective | extremely effective | 64% |  |

Further lines, with some results ahead:

| inhibition at 100 µM (aldose reductase) | inhibition at 10 µM (aldose reductase) | inhibition at 1 µM (aldose reductase) | inhibition at 0.1 µM (aldose reductase) | aldose reductase inhibitory activity (in words) (aldose reductase) | SMILES | Percent inhibition of sorbitol accumulation in the sciatic nerve [1, 4] | Percent inhibition of sorbitol accumulation in the sciatic nerve [1, 5] | Percent inhibition of sorbitol accumulation in the sciatic nerve [1, 6] | lowering of sorbitol levels in sciatic nerve (peripheral nerves) and lens (in words) [2] | lowering of galactitol levels in the lens (in words) [3] | Percent inhibition of sorbitol accumulation in the sciatic nerve [1, 7] | Percent inhibition of sorbitol accumulation in the sciatic nerve ([1]; 2.5 mg./kg. orally at 4, 8 and 24 h after streptozotocin) |
| --- | --- | --- | --- | --- | --- | --- | --- | --- | --- | --- | --- | --- |
| 87% | 85% | 52% | 6% |  | O=C1NC(=O)C2(CCOc3c(Cl)cccc32)N1 (stereo not shown) [Ex. XXVII, 8-chloro-spiro-[chroman-4,4'-imidazolidine]-2',5'-dione] | 30% |  |  |  |  |  |  |
| 87% | 80% | 64% | 16% |  | O=C1NC(=O)C2(CC[S+]([O-])c3ccc(F)cc32)N1 (stereo not shown) [Ex. XXX, 6'-fluoro-spiro-[imidazolidine-4,4'-thiochroman]-2,5-dione-1'-oxide] | 35% |  |  |  |  |  |  |
| 85% | 74% | 74% | 28% |  | O=C1NC(=O)C2(CCS(=O)(=O)c3ccc(F)cc32)N1 (stereo not shown) [Ex. XXXI, 6'-fluoro-spiro-[imidazolidine-4,4'-thiochroman]-2,5-dione-1',1'-dioxide] |  | 68% |  |  |  |  | 47% |
| 81% | 64% | 22% | 4% |  | O=C1NC(=O)C2(CS(=O)(=O)c3ccccc32)N1 (stereo not shown) [Ex. XXXIII, spiro-[imidazolidine-4,3'-thioindan]-2,5-dione-1,1'-dioxide] |  | 5% |  |  |  |  |  |
| 72% | 34% | 13% | 7% |  | O=C1NC(=O)C2(CCCc3ccccc32)N1 (stereo not shown) [Prep. C, 3',4'-Dihydro-spiro-[imidazolidine-4,1'(2'H)-naphthalene]-2,5-dione, reference compound] |  | 3% | 40% |  |  |  |  |
